Measured values: patent US20250082598A1, “Melafenoxate, 2-(1-adamantylamino)ethyl 2-(4-chlorophenoxy)acetate and derivatives thereof for treating circadian rhythm sleep disorders with neurodegenerative diseases such as Alzheimer's disease” (NLS Pharmaceutics AG, priority 2021, published 2025)

Legend:
Cl— channel (GABA-gated) = test: Radioligand binding, Cl- channel (GABA-gated); conditions: antagonist radioligand
Method: Melafenoxate was tested at 10^−5 M, calculated as a % inhibition of control specific binding of a radioactively labeled ligand specific for each target.
This binding profile panel was broadly defined with roughly an equal number of selective, central and peripheral therapeutically relevant targets, including native animal tissues, radioligands and specific enzymes involved in cell cycle regulation in accordance with Eurofins Standard Operating Procedure.
For radioligand binding experiments, the half maximal inhibitory concentration (IC50) and the half maximal effective concentration (EC50) values were determined (via computer software) by nonlinear regression analysis of the competition curves using Hill equation curve fitting. The inhibition constants (Ki) were calculated using the Cheng-Prusoff equation (Ki=IC50/(1+(L/KD)), where L is the concentration of radioligand in the assay, and KD is the affinity of the radioligand for the receptor.^49
The results are expressed as a % control specific binding ([measured specific binding/control specific binding]×100) and as a % inhibition of control specific binding (100−[(measured specific binding/control specific binding)×100]) obtained in the presence of the test compounds. […]

RXFP4 (h) = RXFP4 (h) (Homo sapiens, UniProt Q8TDU9); test: RXFP4 assay (Eurofins/LeadHunter, cAMP Hunter GPCR Biosensor); assay type: cell-based
Sequence of RXFP4 (h) (Q8TDU9 whole entry): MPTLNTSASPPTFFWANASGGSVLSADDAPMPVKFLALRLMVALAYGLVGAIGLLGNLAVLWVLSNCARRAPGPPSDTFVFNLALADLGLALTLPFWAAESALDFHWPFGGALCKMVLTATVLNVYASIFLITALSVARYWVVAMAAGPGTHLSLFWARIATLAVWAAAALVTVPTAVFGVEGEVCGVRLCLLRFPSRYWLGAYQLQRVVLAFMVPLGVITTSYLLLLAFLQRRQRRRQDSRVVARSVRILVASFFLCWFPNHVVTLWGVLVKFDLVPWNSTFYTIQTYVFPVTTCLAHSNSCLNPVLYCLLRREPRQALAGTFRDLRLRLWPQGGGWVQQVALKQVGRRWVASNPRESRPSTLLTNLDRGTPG
Method: Melafenoxate is found to weakly bind with RXFP3 and RXFP4 receptors (Study FR095-0024749-Q Eurofins/leadHunter Jun. 25, 2021; unpublished data).
In these assays' compounds were tested in agonist and antagonist mode with the GPCR Biosensor Assays and match to this design:
• 1. CAMP Hunter cell lines were expanded from freezer stocks according to standard procedures. • 2. Cells were seeded in a total volume of 20 μL into white walled, 384-well microplates and incubated at 37° C. for the appropriate time prior to testing. • 3. cAMP modulation was determined using the DiscoverX HitHunter CAMP XS+assay.
• 1. For agonist determination, cells were incubated with sample to induce response. • 2. Media was aspirated from cells and replaced with 15 μL 2:1 HBSS/10 mM Hepes: CAMP XS+ Ab reagent. • 3. […]
• 1. […] Microplates were read following signal generation with a PerkinElmer Envision™ instrument for chemiluminescent signal detection.
• 1. Compound activity was analyzed using CBIS data analysis suite (ChemInnovation, CA). • 2. For Gs agonist mode assays, percentage activity is calculated using the following formula:
% Activity=100%×(mean RLU of test sample−mean RLU of vehicle control)/(mean RLU of MAX control−mean RLU of vehicle control). • 3. For Gs positive allosteric mode assays, percentage modulation is calculated using the following formula: http://www.eurofinsdiscoveryservices.com Confidential Jun. […]

% Inhibition at 10^−5 M (Cl— channel (GABA-gated)): 13.5% | binding with RXFP4 receptor (in words) (RXFP4 (h)): weakly bind | % Inhibition at 5*10^−5 M (RXFP4 (h); 5*10^−5 M): 19.5%
Structure (SMILES): O=C(COc1ccc(Cl)cc1)OCCNC12CC3CC(CC(C3)C1)C2 [Melafenoxate, 2-(1-adamantylamino)ethyl 2-(4-chlorophenoxy)acetate]
